Results published in US4230846A, “1,5-Carbamates of fortimicin B and derivatives” (Abbott Laboratories, priority 1979, dated 1980).
Structures can show the parent of a compound that is named as a salt. Where two headings read alike, the source gives them in different places. One block for each compound: values may come before it.

Key:
E coli 76-2 = experiment: In vitro antimicrobial activity, 2-fold agar dilution; format: cell-based; conditions: Mueller-Hinton agar, 37° C., 24 hours
Protocol: (§1) 21, 1977. The in vitro activity of 2-deoxyfortimicin As set forth in Table I. The in vitro activity of 2-deoxyfortiicin A tetrahydrochloride, fortimicin A disulfate and fortimicin A tetrahydrochloride were determined using a 2-fold agar dilution method using 10 ml per petri plate of Mueller-Hinton agar. The agar was inoculated with one loopful (0.001 ml/loop) of a 1:10 dilution of a 24 hour broth culture of the indicated test organism and incubated at 37° C. for 24 hours.

[1] = tested on: Psuedo. aeruginosa KY 8516; experiment: as above; format: cell-based
Protocol: as §1

MIC (E coli 76-2; read-out: Minimum inhibitory concentration): 3.1 µg/mL
MIC ([1]; Psuedo. aeruginosa KY 8516, Mueller-Hinton agar, 37° C., 24 hours, read-out: Minimum inhibitory concentration): 50 µg/mL
Compound: COC1CC(N)C(OC2OC(C(C)N)CCC2N)C(O)C1N(C)C(=O)CN (centres unmarked) [2-deoxyfortimicin A tetrahydrochloride]

Compound: COC1C(O)C(N)C(OC2OC(C(C)N)CCC2N)C(O)C1N(C)C(=O)CN (centres unmarked) [Fortimicin A disulfate, fortimicin A disulfate]
MIC ([1]; 24 h, read-out: Minimum inhibitory concentration, Psuedo. aeruginosa KY 8516, Mueller-Hinton agar, 37° C.): 50 µg/mL

Compound: COC1C(O)C(N)C(OC2OC(C(C)N)CCC2N)C(O)C1N(C)C(=O)CN (centres unmarked) [Fortimicin A tetrahydrochloride, fortimicin A tetrahydrochloride]
Minimum inhibitory concentration (E coli 76-2): 3.1 µg/mL
Minimum inhibitory concentration ([1]; Psuedo. aeruginosa KY 8516, Mueller-Hinton agar, 37° C., 24 hours): 100 µg/mL
